Experimental data published in US20100267561A1, “HERBICIDAL PYRIDAZINONE DERIVATIVES” (priority 2007, published 2010).

Tests used:
Assay in all cases: Test E pre-/postemergence plant response
Assay type in all cases: in vivo
[1] = system: johnsongrass (Sorghum halepense); conditions: scale 0 to 100
How it was run: (§1)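 Formulated in a non-phytotoxic solvent mixture containing surfactant, compound was applied to soil at planting or sprayed on emerged plants at the 1- to 4-leaf stage. Visual comparison with controls followed 14 to 21 days in the greenhouse; 0 = no effect, 100 = complete control.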

[2] = system: bermudagrass (Cynodon dactylon); conditions: scale 0 to 100
How it was run: as §1

[3] = system: dallisgrass (Paspalum dilatatum); conditions: scale 0 to 100
How it was run: as §1

[4] = system: Italian ryegrass (Lolium multiflorum); conditions: scale 0 to 100
How it was run: as §1

[5] = system: purple nutsedge (Cyperus rotundus); conditions: scale 0 to 100
How it was run: as §1

[6] = system: common chickweed (Stellaria media); conditions: Postemergence, scale 0 to 100
How it was run: as §1

[7] = system: green foxtail (Setaria viridis); conditions: scale 0 to 100
How it was run: as §1

[8] = system: southern (S.) sandbur (Cenchrus echinatus); conditions: scale 0 to 100
How it was run: as §1

[9] = system: black mustard (Brassica nigra); conditions: scale 0 to 100
How it was run: as §1

[10] = system: large crabgrass (Digitaria sanguinalis); conditions: scale 0 to 100
How it was run: as §1

[11] = system: common purslane (Portulaca oleracea); conditions: scale 0 to 100
How it was run: as §1

[12] = system: goosegrass (Eleusine indica); conditions: scale 0 to 100
How it was run: as §1

How did the “Plant response rating, Johnsongrass” value ([1]; 16 g ai/ha, Preemergence) turn out when `Cc1cc(-c2ccc(Cl)cc2)nn1-c1c(OS(C)(=O)=O)cnn(C)c1=O` [Compound 36] was run?
The value was 75.

And the “Plant response rating, Johnsongrass” value ([1]; 31 g ai/ha, Preemergence)?
The value was 85.

And the “Plant response rating, Johnsongrass” value ([1]; 62 g ai/ha, Preemergence)?
Its value is 95.

And the “Plant response rating, Johnsongrass” value ([1]; Postemergence, 8 g ai/ha)?
The value was 35.

And the “Plant response rating, Johnsongrass” value ([1]; Postemergence, 16 g ai/ha)?
The value was 50.

What about the “Plant response rating, Johnsongrass” value ([1]; Postemergence, 31 g ai/ha) of the same compound?
Its value is 75.

What about the “Plant response rating, Johnsongrass” value ([1]; Postemergence, 62 g ai/ha) of the same compound?
The value was 95.

And the “Plant response rating, Bermudagrass” value ([2]; 8 g ai/ha, Preemergence)?
Its value is 75.

And the “Plant response rating, Bermudagrass” value ([2]; 16 g ai/ha, Preemergence)?
Its value is 100.

What about the “Plant response rating, Bermudagrass” value ([2]; 31 g ai/ha, Preemergence) of the same compound?
The value was 100.

What about the “Plant response rating, Bermudagrass” value ([2]; 62 g ai/ha, Preemergence) of the same compound?
The value was 100.

And the “Plant response rating, Bermudagrass” value ([2]; Postemergence, 8 g ai/ha)?
Its value is 40.

And the “Plant response rating, Bermudagrass” value ([2]; Postemergence, 16 g ai/ha)?
The value was 40.

What about the “Plant response rating, Bermudagrass” value ([2]; Postemergence, 31 g ai/ha) of the same compound?
Its value is 70.

What about the “Plant response rating, Bermudagrass” value ([2]; Postemergence, 62 g ai/ha) of the same compound?
Its value is 90.

What about the “Plant response rating, Dallisgrass” value ([3]; 8 g ai/ha, Preemergence) of the same compound?
Its value is 35.

What about the “Plant response rating, Dallisgrass” value ([3]; 16 g ai/ha, Preemergence) of the same compound?
The value was 60.

And the “Plant response rating, Dallisgrass” value ([3]; 31 g ai/ha, Preemergence)?
Its value is 75.

And the “Plant response rating, Dallisgrass” value ([3]; 62 g ai/ha, Preemergence)?
Its value is 98.

And the “Plant response rating, Dallisgrass” value ([3]; Postemergence, 8 g ai/ha)?
Its value is 0.

What about the “Plant response rating, Dallisgrass” value ([3]; Postemergence, 16 g ai/ha) of the same compound?
The value was 20.

And the “Plant response rating, Dallisgrass” value ([3]; Postemergence, 31 g ai/ha)?
Its value is 30.

What about the “Plant response rating, Dallisgrass” value ([3]; Postemergence, 62 g ai/ha) of the same compound?
Its value is 50.

What about the “Plant response rating, Ryegrass, Italian” value ([4]; 16 g ai/ha, Preemergence) of the same compound?
The value was 100.

What about the “Plant response rating, Ryegrass, Italian” value ([4]; 31 g ai/ha, Preemergence) of the same compound?
Its value is 100.

What about the “Plant response rating, Ryegrass, Italian” value ([4]; 62 g ai/ha, Preemergence) of the same compound?
The value was 100.

And the “Plant response rating, Ryegrass, Italian” value ([4]; Postemergence, 8 g ai/ha)?
Its value is 0.

And the “Plant response rating, Ryegrass, Italian” value ([4]; Postemergence, 16 g ai/ha)?
The value was 35.

And the “Plant response rating, Ryegrass, Italian” value ([4]; Postemergence, 31 g ai/ha)?
Its value is 60.

What about the “Plant response rating, Ryegrass, Italian” value ([4]; Postemergence, 62 g ai/ha) of the same compound?
Its value is 80.

And the “Plant response rating, Nutsedge, Purple” value ([5]; 16 g ai/ha, Preemergence)?
The value was 0.

What about the “Plant response rating, Nutsedge, Purple” value ([5]; 31 g ai/ha, Preemergence) of the same compound?
The value was 0.

What about the “Plant response rating, Nutsedge, Purple” value ([5]; 62 g ai/ha, Preemergence) of the same compound?
The value was 0.

What about the “Plant response rating, Nutsedge, Purple” value ([5]; Postemergence, 8 g ai/ha) of the same compound?
Its value is 0.

What about the “Plant response rating, Nutsedge, Purple” value ([5]; Postemergence, 16 g ai/ha) of the same compound?
Its value is 0.

And the “Plant response rating, Nutsedge, Purple” value ([5]; Postemergence, 31 g ai/ha)?
Its value is 0.

And the “Plant response rating, Nutsedge, Purple” value ([5]; Postemergence, 62 g ai/ha)?
Its value is 0.

What about the “Plant response rating, Chickweed” value ([6]; 8 g ai/ha) of the same compound?
Its value is 0.

And the “Plant response rating, Chickweed” value ([6]; 16 g ai/ha)?
The value was 0.

And the “Plant response rating, Foxtail, Green” value ([7]; 8 g ai/ha, Preemergence)?
The value was 15.

What about the “Plant response rating, Foxtail, Green” value ([7]; 16 g ai/ha, Preemergence) of the same compound?
The value was 60.

What about the “Plant response rating, Foxtail, Green” value ([7]; 31 g ai/ha, Preemergence) of the same compound?
Its value is 95.

And the “Plant response rating, Foxtail, Green” value ([7]; 62 g ai/ha, Preemergence)?
The value was 100.

And the “Plant response rating, Foxtail, Green” value ([7]; Postemergence, 8 g ai/ha)?
The value was 35.

What about the “Plant response rating, Foxtail, Green” value ([7]; Postemergence, 16 g ai/ha) of the same compound?
The value was 50.

What about the “Plant response rating, Foxtail, Green” value ([7]; Postemergence, 31 g ai/ha) of the same compound?
Its value is 75.

What about the “Plant response rating, Foxtail, Green” value ([7]; Postemergence, 62 g ai/ha) of the same compound?
The value was 75.

What about the “Plant response rating, Sandbur, S.” value ([8]; 16 g ai/ha, Preemergence) of the same compound?
The value was 90.

What about the “Plant response rating, Sandbur, S.” value ([8]; 31 g ai/ha, Preemergence) of the same compound?
Its value is 100.

And the “Plant response rating, Sandbur, S.” value ([8]; 62 g ai/ha, Preemergence)?
Its value is 100.

And the “Plant response rating, Sandbur, S.” value ([8]; Postemergence, 8 g ai/ha)?
Its value is 40.

What about the “Plant response rating, Sandbur, S.” value ([8]; Postemergence, 16 g ai/ha) of the same compound?
Its value is 65.

And the “Plant response rating, Sandbur, S.” value ([8]; Postemergence, 31 g ai/ha)?
The value was 80.

What about the “Plant response rating, Sandbur, S.” value ([8]; Postemergence, 62 g ai/ha) of the same compound?
Its value is 85.

What about the “Plant response rating, Mustard, Black” value ([9]; 8 g ai/ha, Preemergence) of the same compound?
The value was 0.

And the “Plant response rating, Mustard, Black” value ([9]; 16 g ai/ha, Preemergence)?
The value was 0.

And the “Plant response rating, Mustard, Black” value ([9]; 31 g ai/ha, Preemergence)?
The value was 0.

What about the “Plant response rating, Mustard, Black” value ([9]; 62 g ai/ha, Preemergence) of the same compound?
Its value is 0.

What about the “Plant response rating, Mustard, Black” value ([9]; Postemergence, 8 g ai/ha) of the same compound?
The value was 0.

And the “Plant response rating, Mustard, Black” value ([9]; Postemergence, 16 g ai/ha)?
Its value is 0.

What about the “Plant response rating, Mustard, Black” value ([9]; Postemergence, 31 g ai/ha) of the same compound?
Its value is 0.

And the “Plant response rating, Mustard, Black” value ([9]; Postemergence, 62 g ai/ha)?
Its value is 0.

What about the “Plant response rating, Crabgrass, Large” value ([10]; 8 g ai/ha, Preemergence) of the same compound?
The value was 35.

And the “Plant response rating, Crabgrass, Large” value ([10]; 16 g ai/ha, Preemergence)?
The value was 95.

What about the “Plant response rating, Crabgrass, Large” value ([10]; 31 g ai/ha, Preemergence) of the same compound?
The value was 98.

And the “Plant response rating, Crabgrass, Large” value ([10]; 62 g ai/ha, Preemergence)?
The value was 98.

What about the “Plant response rating, Crabgrass, Large” value ([10]; Postemergence, 8 g ai/ha) of the same compound?
Its value is 65.

What about the “Plant response rating, Crabgrass, Large” value ([10]; Postemergence, 16 g ai/ha) of the same compound?
Its value is 70.

What about the “Plant response rating, Crabgrass, Large” value ([10]; Postemergence, 31 g ai/ha) of the same compound?
Its value is 75.

And the “Plant response rating, Crabgrass, Large” value ([10]; Postemergence, 62 g ai/ha)?
Its value is 80.

What about the “Plant response rating, Purslane” value ([11]; 16 g ai/ha, Preemergence) of the same compound?
The value was 0.

What about the “Plant response rating, Purslane” value ([11]; 31 g ai/ha, Preemergence) of the same compound?
The value was 0.

What about the “Plant response rating, Purslane” value ([11]; 62 g ai/ha, Preemergence) of the same compound?
The value was 0.

What about the “Plant response rating, Purslane” value ([11]; Postemergence, 8 g ai/ha) of the same compound?
The value was 0.

And the “Plant response rating, Purslane” value ([11]; Postemergence, 16 g ai/ha)?
The value was 0.

And the “Plant response rating, Purslane” value ([11]; Postemergence, 31 g ai/ha)?
Its value is 0.

What about the “Plant response rating, Purslane” value ([11]; Postemergence, 62 g ai/ha) of the same compound?
The value was 0.

And the “Plant response rating, Goosegrass” value ([12]; 8 g ai/ha, Preemergence)?
Its value is 30.

What about the “Plant response rating, Goosegrass” value ([12]; 16 g ai/ha, Preemergence) of the same compound?
Its value is 98.

What about the “Plant response rating, Goosegrass” value ([12]; 31 g ai/ha, Preemergence) of the same compound?
The value was 98.

And the “Plant response rating, Goosegrass” value ([12]; 62 g ai/ha, Preemergence)?
Its value is 100.

What about the “Plant response rating, Goosegrass” value ([12]; Postemergence, 8 g ai/ha) of the same compound?
The value was 0.

And the “Plant response rating, Goosegrass” value ([12]; Postemergence, 16 g ai/ha)?
The value was 35.

And the “Plant response rating, Goosegrass” value ([12]; Postemergence, 31 g ai/ha)?
Its value is 40.

What about the “Plant response rating, Goosegrass” value ([12]; Postemergence, 62 g ai/ha) of the same compound?
The value was 75.
